Experimental findings from ChEMBL document CHEMBL1132780, “Synthesis and NK1/NK2 receptor activity of substituted-4(Z)-(methoxyimino)pentyl-1-piperazines” (Bioorg Med Chem Lett, 2000) are described below.

Some results are limits rather than exact numbers.

The target of one assay is T1, Substance-K receptor (Homo sapiens, UniProt P21452).
T1 sequence (P21452 whole entry): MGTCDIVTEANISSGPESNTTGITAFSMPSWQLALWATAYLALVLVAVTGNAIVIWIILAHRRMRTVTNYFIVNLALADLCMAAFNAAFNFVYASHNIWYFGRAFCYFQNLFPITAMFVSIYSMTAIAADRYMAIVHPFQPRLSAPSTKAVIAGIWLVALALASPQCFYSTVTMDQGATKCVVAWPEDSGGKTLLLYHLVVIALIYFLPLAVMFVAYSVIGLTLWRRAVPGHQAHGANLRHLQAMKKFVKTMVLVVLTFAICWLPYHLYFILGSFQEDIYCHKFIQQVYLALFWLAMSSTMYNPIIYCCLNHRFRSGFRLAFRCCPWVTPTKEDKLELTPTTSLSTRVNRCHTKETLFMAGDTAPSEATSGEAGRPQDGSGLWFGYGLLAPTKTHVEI
Put plainly: Inhibitory activity against human tachykinin receptor 2.

For the next assay, the target named is Substance-P receptor (Homo sapiens, UniProt P25103). The assay is described as follows: Inhibitory activity against human tachykinin receptor 1.
Sequence of Substance-P receptor (P25103 whole entry): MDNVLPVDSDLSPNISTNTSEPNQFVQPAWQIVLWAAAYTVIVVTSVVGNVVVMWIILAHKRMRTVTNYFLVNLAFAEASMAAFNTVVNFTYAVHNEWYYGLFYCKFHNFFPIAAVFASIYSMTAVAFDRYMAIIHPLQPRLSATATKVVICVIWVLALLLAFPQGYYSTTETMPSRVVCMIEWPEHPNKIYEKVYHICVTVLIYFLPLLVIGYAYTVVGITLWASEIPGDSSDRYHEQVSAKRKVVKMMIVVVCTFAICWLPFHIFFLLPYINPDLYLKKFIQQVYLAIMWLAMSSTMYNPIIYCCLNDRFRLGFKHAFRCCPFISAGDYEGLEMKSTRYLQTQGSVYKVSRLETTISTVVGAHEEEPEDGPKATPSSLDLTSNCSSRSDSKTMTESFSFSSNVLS

With `CO/N=C(\COCc1cc(C(F)(F)F)cc(C(F)(F)F)c1)C(CCN1CCN(CC(=O)N2CCOCC2)CC1)c1ccc(Cl)c(Cl)c1` (configuration not stated), the inhibition constant (Ki) on Substance-K receptor turned out to be 28 nM; on Substance-P receptor, 19 nM.

Take `CO/N=C(\COCc1cc(C(F)(F)F)cc(C(F)(F)F)c1)C(CCN1CCN(CC(=O)N2CCCC(O)C2)CC1)c1ccc(Cl)c(Cl)c1` (configuration not stated): the values for the Ki on Substance-K receptor and at Substance-P receptor were 38 nM and 13 nM, respectively.

For `CO/N=C(\COCc1cc(C(F)(F)F)cc(C(F)(F)F)c1)C(CCN1CCNCC1)c1ccc(Cl)c(Cl)c1` (configuration not stated), the inhibitory constant (Ki) at Substance-K receptor was determined as 738 nM; on Substance-P receptor it was 30 nM.

For the compound `CO/N=C(\COCc1cc(C(F)(F)F)cc(C(F)(F)F)c1)C(CCN1CCN(CC(=O)N2CC(O)C2)CC1)c1ccc(Cl)c(Cl)c1` (configuration not stated), the Ki turned out to be 31 nM at Substance-K receptor and 22 nM at Substance-P receptor.

With `CO/N=C(\COCc1cc(C(F)(F)F)cc(C(F)(F)F)c1)C(CCN1CCN(C)CC1)c1ccc(Cl)c(Cl)c1` (configuration not stated), the inhibition constant Ki at Substance-K receptor was 200 nM; on Substance-P receptor, 61 nM.

For the compound `CO/N=C(\COCc1cc(C(F)(F)F)cc(C(F)(F)F)c1)C(CCN1CCN(CC(=O)N2CCC(O)C2)CC1)c1ccc(Cl)c(Cl)c1` (configuration not stated), the Ki at Substance-K receptor is 30 nM; on Substance-P receptor, 16 nM.

In the case of `CO/N=C(\COCc1cc(C(F)(F)F)cc(C(F)(F)F)c1)C(CCN1CCN(CC(=O)N2CCC(NC(C)=O)C2)CC1)c1ccc(Cl)c(Cl)c1` (configuration not stated), the Ki at Substance-K receptor turned out to be 48 nM; at Substance-P receptor, 9 nM.

Turning to `CO/N=C(\COCc1cc(C(F)(F)F)cc(C(F)(F)F)c1)C(CCN1CCN(CC(=O)N2CCCCC2)CC1)c1ccc(Cl)c(Cl)c1` (configuration not stated), the Ki at Substance-K receptor was found to be 208 nM; on Substance-P receptor, 82 nM.

Take `CO/N=C(\COCc1cc(C(F)(F)F)cc(C(F)(F)F)c1)C(CCN1CCN(CC(=O)N2CCCC2)CC1)c1ccc(Cl)c(Cl)c1` (configuration not stated): the figures for the Ki at Substance-K receptor and at Substance-P receptor were 21 nM and 14 nM, respectively.

Take `CO/N=C(\COCc1cc(C(F)(F)F)cc(C(F)(F)F)c1)C(CCN1CCN(CC(=O)N2CCC2)CC1)c1ccc(Cl)c(Cl)c1` (configuration not stated): the inhibition constant Ki came out at 33 nM on Substance-K receptor and 23 nM at Substance-P receptor.

Regarding `CO/N=C(\COCc1cc(C(F)(F)F)cc(C(F)(F)F)c1)C(CCN1CCN(CC(=O)NC2CCc3ccccc32)CC1)c1ccc(Cl)c(Cl)c1` (configuration not stated), the Ki was above 680 nM on Substance-K receptor and 136 nM on Substance-P receptor.

For `CO/N=C(\COCc1cc(C(F)(F)F)cc(C(F)(F)F)c1)C(CCN1CCN(CC(=O)N(C)C2CCCCC2)CC1)c1ccc(Cl)c(Cl)c1` (configuration not stated), the figures for the Ki at Substance-K receptor and at Substance-P receptor were 368 nM and 113 nM, respectively.

In the case of `CO/N=C(\COCc1cc(C(F)(F)F)cc(C(F)(F)F)c1)C(CCN1CCN(CC(=O)NCC2CCCO2)CC1)c1ccc(Cl)c(Cl)c1` (configuration not stated), the Ki at Substance-K receptor was found to be 266 nM; at Substance-P receptor it was 20 nM.

Take `CO/N=C(\COCc1cc(C(F)(F)F)cc(C(F)(F)F)c1)C(CCN1CCN(CC(=O)N2CCC[C@H]2C(N)=O)CC1)c1ccc(Cl)c(Cl)c1` (some centres not stated): the values for the Ki at Substance-K receptor and at Substance-P receptor were 26 nM and 24 nM, respectively.

For `CO/N=C(\COCc1cc(C(F)(F)F)cc(C(F)(F)F)c1)C(CCN1CCN(CC(=O)NC2CC2)CC1)c1ccc(Cl)c(Cl)c1` (configuration not stated), the Ki at Substance-K receptor is 259 nM; on Substance-P receptor, 62 nM.

On to `CCOC(=O)C1CCN(C(=O)CN2CCN(CCC(/C(COCc3cc(C(F)(F)F)cc(C(F)(F)F)c3)=N/OC)c3ccc(Cl)c(Cl)c3)CC2)CC1` (configuration not stated), for which the Ki was found to be 409 nM on Substance-K receptor and 24 nM on Substance-P receptor.

In the case of `CO/N=C(\COCc1cc(C(F)(F)F)cc(C(F)(F)F)c1)C(CCN1CCN(CC(=O)N2CCCCC2CO)CC1)c1ccc(Cl)c(Cl)c1` (configuration not stated), the Ki was 52 nM at Substance-K receptor and 47 nM on Substance-P receptor.

As for `CO/N=C(\COCc1cc(C(F)(F)F)cc(C(F)(F)F)c1)C(CCN1CCN(CC(=O)N(C(C)C)C(C)C)CC1)c1ccc(Cl)c(Cl)c1` (configuration not stated), the figures for the Ki on Substance-K receptor and at Substance-P receptor were 170 nM and 82 nM, respectively.

With `CO/N=C(\COCc1cc(C(F)(F)F)cc(C(F)(F)F)c1)C(CCN1CCN(c2ncccn2)CC1)c1ccc(Cl)c(Cl)c1` (configuration not stated), the Ki came out at 217 nM on Substance-K receptor and 70 nM at Substance-P receptor.

Turning to `CO/N=C(\COCc1cc(C(F)(F)F)cc(C(F)(F)F)c1)C(CCN1CCN(CC(=O)N2CCCC3CCCCC32)CC1)c1ccc(Cl)c(Cl)c1` (configuration not stated), the Ki on Substance-K receptor came to 477 nM; at Substance-P receptor it was 136 nM.

As to `CO/N=C(\COCc1cc(C(F)(F)F)cc(C(F)(F)F)c1)C(CCN1CCN(C2CCCCC2)CC1)c1ccc(Cl)c(Cl)c1` (configuration not stated), the Ki at Substance-K receptor is 128 nM; at Substance-P receptor, 53 nM.

For the compound `CO/N=C(\COCc1cc(C(F)(F)F)cc(C(F)(F)F)c1)C(CCN1CCN(CC(=O)Nc2ccccc2)CC1)c1ccc(Cl)c(Cl)c1` (configuration not stated), the Ki on Substance-K receptor was above 680 nM; at Substance-P receptor it was 125 nM.

Take `CO/N=C(\COCc1cc(C(F)(F)F)cc(C(F)(F)F)c1)C(CCN1CCN(CC(=O)N2CCC(N(C)C)C2)CC1)c1ccc(Cl)c(Cl)c1` (configuration not stated): the values for the Ki on Substance-K receptor and on Substance-P receptor were 95 nM and 14 nM, respectively.

In the case of `CO/N=C(\COCc1cc(C(F)(F)F)cc(C(F)(F)F)c1)C(CCN1CCN(CC(=O)N2CCc3ccccc3C2)CC1)c1ccc(Cl)c(Cl)c1` (configuration not stated), the results for the Ki at Substance-K receptor and on Substance-P receptor were 566 nM and 125 nM, respectively.

Take `CCOCCCNC(=O)CN1CCN(CCC(/C(COCc2cc(C(F)(F)F)cc(C(F)(F)F)c2)=N/OC)c2ccc(Cl)c(Cl)c2)CC1` (configuration not stated): the Ki on Substance-K receptor came to 382 nM; on Substance-P receptor, 39 nM.

On to `CO/N=C(\COCc1cc(C(F)(F)F)cc(C(F)(F)F)c1)C(CCN1CCN(c2ccccc2)CC1)c1ccc(Cl)c(Cl)c1` (configuration not stated), for which the results for the Ki at Substance-K receptor and at Substance-P receptor were 978 nM and 181 nM, respectively.
